Measurements published in patent publication US4705786A, “Novel oxadiazolyl-1,4-dihydropyridines useful as antihypertensive agents” (Sumitomo Pharmaceuticals Company, Limited, priority 1984, dated 1987).
Structures can show the parent of a compound that is named as a salt.

Key:
[1] = molecular target: isolated strips of the descending aorta (Rattus norvegicus, UniProt P22002); experiment: cell-based; set-up: species or system Male Wistar rats; conditions: for Kb: isolated rat aorta, Ca2+ dose-response curves in 25 mM K+, Arunlakshana method, read-out: pA2 (converted)
Chain of isolated strips of the descending aorta (P22002 whole entry): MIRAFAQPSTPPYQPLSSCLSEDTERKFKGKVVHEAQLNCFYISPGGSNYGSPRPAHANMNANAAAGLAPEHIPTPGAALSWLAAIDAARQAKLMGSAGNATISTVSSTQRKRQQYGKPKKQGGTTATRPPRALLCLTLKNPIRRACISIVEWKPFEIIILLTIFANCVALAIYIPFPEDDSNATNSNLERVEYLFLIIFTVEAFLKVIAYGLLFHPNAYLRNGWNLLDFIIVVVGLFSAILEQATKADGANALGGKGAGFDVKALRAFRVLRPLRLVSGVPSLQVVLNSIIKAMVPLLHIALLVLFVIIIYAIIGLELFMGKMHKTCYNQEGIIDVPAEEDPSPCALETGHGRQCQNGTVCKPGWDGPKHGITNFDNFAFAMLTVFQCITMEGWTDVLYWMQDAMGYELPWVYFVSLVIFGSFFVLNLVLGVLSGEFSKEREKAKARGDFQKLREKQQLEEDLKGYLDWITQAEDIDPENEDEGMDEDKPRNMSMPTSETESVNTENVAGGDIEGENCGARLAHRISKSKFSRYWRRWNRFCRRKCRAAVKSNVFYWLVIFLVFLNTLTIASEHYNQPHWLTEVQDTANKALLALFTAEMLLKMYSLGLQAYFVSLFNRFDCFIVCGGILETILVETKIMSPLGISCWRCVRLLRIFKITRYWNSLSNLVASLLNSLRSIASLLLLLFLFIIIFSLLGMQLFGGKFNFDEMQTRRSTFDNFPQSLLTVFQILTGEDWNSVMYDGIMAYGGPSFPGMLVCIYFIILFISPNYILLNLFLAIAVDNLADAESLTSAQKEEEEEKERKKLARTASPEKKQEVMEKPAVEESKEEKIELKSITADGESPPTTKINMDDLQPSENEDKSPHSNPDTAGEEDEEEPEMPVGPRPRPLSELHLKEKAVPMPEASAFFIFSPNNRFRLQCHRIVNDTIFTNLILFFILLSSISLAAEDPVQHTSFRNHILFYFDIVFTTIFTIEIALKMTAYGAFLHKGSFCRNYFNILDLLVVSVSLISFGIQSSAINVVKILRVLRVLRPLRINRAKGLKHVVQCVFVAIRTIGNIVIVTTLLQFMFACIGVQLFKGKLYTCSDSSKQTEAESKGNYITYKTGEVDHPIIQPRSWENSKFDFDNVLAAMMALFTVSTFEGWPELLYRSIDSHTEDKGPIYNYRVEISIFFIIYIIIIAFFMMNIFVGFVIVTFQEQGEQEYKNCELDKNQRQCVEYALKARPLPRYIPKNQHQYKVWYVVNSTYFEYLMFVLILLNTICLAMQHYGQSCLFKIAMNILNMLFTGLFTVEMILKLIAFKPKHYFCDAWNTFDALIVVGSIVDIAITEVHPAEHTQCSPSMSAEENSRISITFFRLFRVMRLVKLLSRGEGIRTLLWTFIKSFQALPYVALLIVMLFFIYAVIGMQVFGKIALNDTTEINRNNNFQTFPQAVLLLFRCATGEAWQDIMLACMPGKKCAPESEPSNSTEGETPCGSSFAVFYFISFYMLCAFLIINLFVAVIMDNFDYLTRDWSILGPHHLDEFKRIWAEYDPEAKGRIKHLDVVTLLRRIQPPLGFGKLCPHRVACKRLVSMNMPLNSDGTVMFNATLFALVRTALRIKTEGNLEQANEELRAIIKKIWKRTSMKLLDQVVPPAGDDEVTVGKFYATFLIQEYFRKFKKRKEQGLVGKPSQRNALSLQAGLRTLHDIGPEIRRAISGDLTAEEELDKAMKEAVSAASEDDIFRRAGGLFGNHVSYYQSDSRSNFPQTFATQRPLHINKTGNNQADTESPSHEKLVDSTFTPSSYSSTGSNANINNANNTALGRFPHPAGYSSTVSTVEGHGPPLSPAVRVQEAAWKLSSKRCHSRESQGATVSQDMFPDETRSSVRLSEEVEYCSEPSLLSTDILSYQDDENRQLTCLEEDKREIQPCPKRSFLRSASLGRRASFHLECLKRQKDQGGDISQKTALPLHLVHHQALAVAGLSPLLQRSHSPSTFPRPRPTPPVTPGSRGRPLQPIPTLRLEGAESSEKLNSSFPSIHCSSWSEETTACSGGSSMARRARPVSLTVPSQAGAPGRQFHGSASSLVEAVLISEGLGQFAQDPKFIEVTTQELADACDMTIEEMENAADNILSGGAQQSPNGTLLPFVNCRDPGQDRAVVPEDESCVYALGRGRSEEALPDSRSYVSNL
Chain of isolated strips of the descending aorta (P54290 25-944 partner limits assumed): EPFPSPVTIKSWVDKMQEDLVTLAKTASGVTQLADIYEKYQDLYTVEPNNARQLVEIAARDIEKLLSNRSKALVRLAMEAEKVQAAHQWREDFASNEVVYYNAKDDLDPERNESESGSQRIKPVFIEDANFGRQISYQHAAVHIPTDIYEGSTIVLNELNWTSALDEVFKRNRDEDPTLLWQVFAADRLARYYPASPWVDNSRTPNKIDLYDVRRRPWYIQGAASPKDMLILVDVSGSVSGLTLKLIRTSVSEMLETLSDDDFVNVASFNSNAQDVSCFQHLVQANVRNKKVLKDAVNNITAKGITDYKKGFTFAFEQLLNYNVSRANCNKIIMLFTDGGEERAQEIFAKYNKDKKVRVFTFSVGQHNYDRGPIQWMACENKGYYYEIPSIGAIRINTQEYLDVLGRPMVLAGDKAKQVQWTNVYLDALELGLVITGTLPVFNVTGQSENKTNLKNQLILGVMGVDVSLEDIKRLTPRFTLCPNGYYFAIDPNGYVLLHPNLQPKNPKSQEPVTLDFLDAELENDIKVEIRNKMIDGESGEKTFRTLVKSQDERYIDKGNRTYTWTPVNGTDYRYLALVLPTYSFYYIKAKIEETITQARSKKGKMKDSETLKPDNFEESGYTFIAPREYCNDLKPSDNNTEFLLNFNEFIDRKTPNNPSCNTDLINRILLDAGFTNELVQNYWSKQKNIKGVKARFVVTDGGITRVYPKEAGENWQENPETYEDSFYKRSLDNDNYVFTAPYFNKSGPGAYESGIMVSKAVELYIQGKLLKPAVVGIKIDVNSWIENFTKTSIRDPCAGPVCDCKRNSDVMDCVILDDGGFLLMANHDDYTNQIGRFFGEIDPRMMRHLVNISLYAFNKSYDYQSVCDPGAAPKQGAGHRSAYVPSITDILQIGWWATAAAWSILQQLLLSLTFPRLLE
Chain of isolated strips of the descending aorta (P54290 945-1091 partner limits assumed): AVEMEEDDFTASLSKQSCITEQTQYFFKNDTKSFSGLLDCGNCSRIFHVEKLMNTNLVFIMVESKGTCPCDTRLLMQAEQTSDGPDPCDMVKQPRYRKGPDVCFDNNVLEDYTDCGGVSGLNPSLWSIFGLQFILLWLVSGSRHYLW
Description: The in vitro calcium antagonistic activity of the subject compounds of the formula (I) was evaluated according to substantially the same method as that of Toda et al., J. Pharmacol. Exp. Ther. 181, 512 (1972) and ibid., 191, 139 (1974).
Male Wistar rats weighing 300-400 g were stunned by a sharp blow to the head. The isolated strips of the descending aorta were-fixed vartically in a 50 ml organ both containing Krebs-Henseleit solution maintained at 37° C. and saturated with a 95% O2 +5% CO2 gas mixture. Isometric tension was measured with a foree-displacement transducer and recorded on a polygraph recorder. During a 60-90 min equilibration period the resting tension was repeatedly adjusted to 1 g. The vessels having ability to potassium-induced contractions were exposed to a Ca^2+ -free medium for 30 min and then to 25 mM K^+ solution. When a contractile plateau was reached, Ca^2+ was added, and the cumulative response to 0.25, 0.5 and 4 mM Ca^2+ was recorded. After wash-out and a equilibration period with renewed testing of contractile ability, the preparations were once more exposed to Ca^2+ -free medium. The test compound was added to the organ bath 5 min before administration of potassium. Calcium was cumulatively added once again and the contractile response so obtained was expressed in percent of the contraction elicited by 4 mM Ca^2+. Dose-response curves for Ca^2+ were carried out cumulatively in the absence or presence of increasing concentrations of test compound. The pA2 values were calculated by the method of Arunlakshana et al., Brit. J. Pharmacol., 14, 48 (1959).

SHR = experiment: 4 weeks administration to SHR, hypotensive potency; format: in vivo, spontaneous hypertensive rats (SHR); conditions: 15 mg/kg/day po
Description: The hypotensive potency of the compound D was also compared with that of nicardipine by administering to the SHR for 4 weeks at 15 mg/kg/day, po.

[2] = test system: isolated rabbit aortic strip; experiment: inhibition of norepinephrine-induced contractions of isolated rabbit aortic strip potentiated by ouabain; format: cell-based; conditions: Oryctolagus cuniculus, read-out: concentration at which norepinephrine-induced contractions are inhibited
[3] = test system: mean arterial blood pressure; experiment: antihypertensive vasodilating activity in anesthetized, ganglion-blocked rats with blood pressure maintained by intravenous angiotensin II; format: in vivo; conditions: 0.01 mg/kg and 0.003 mg/kg
Description: The anesthetized and ganglion-blocked rats whose blood pressure were maintained by an intravenous infusion of angiotensin II were prepared and the test compounds were evaluated according to substantially the same method as that of Deitchman et al., J. Pharmacol Methods, 3, 311 (1980).

[4] = test system: spontaneous hypertensive rats (SHR); experiment: single oral administration to spontaneous hypertensive rats (SHR), antihypertensive activity; format: in vivo; conditions: compound D 1 mg/kg vs nicardipine 3 mg/kg
[5] = test system: physiological saline loaded rats; experiment: diuretic activity in physiological saline loaded rats; format: in vivo; conditions: compound D 3 mg/kg po vs nicardipine 10 mg/kg po

Structure (SMILES) | Kb [1] [nM] | minimal effective concentration [2] [µM] | also measured
COC(=O)C1=C(C)NC(C)=C(c2nc(CN3CCCCC3)no2)C1c1cccc([N+](=O)[O-])c1 (centres unmarked) [A, Methyl 1,4-dihydro-2,6-dimethyl-3-(3-piperidinomethyl-1,2,4-oxadiazol-5-yl)-4-(3-nitrophenyl)pyridine-5-carboxylate hydrochloride] | 0.0309 |  | 
COC(=O)C1=C(C)NC(C)=C(c2nc(CN3CCCCC3)no2)C1c1ccccc1 (centres unmarked) [B, Methyl 1,4-dihydro-2,6-dimethyl-3-(3-piperidinomethyl-1,2,4-oxadiazol-5-yl)-4-phenylpyridine-5-carboxylate hydrochloride] | 0.363 |  | 
COC(=O)C1=C(C)NC(C)=C(c2nc(CN3CCCCC3)no2)C1c1ccc(Cl)c(Cl)c1 (centres unmarked) [C, Methyl 1,4-dihydro-2,6-dimethyl-3-(3-piperidinomethyl-1,2,4-oxadiazol-5-yl)-4-(3,4-dichlorophenyl)pyridine-5-carboxylate hydrochloride] | 0.129 |  | 
COC(=O)C1=C(C)NC(C)=C(c2nc(C)no2)C1c1cccc([N+](=O)[O-])c1 (centres unmarked) [Compound R1, Methyl 1,4-dihydro-2,6-dimethyl-3-(3-methyl-1,2,4-oxadiazol-5-yl)-4-(3-nitrophenyl)pyridine-5-carboxylate, reference compound] | 32.4 |  | calcium antagonistic potency: times less potent than the subject compounds ([1]; R1 compared with compounds A-G): 100-1000 times
COC(=O)C1=C(C)NC(C)=C(C(=O)OCCN(C)Cc2ccccc2)C1c1cccc([N+](=O)[O-])c1 (centres unmarked) [Compound R3, 2-(N--Benzyl-N--methylamino)ethyl methyl 1,4-dihydro-2,6-dimethyl-4-(3-nitrophenyl)pyridine-3,5-dicarboxylate, reference compound] | 0.417 | > 0.1 | antihypertensive activity on 4 weeks administration (SHR): no significant effects
COC(=O)C1=C(C)NC(C)=C(c2nc(CN(C)Cc3ccccc3)no2)C1c1cccc([N+](=O)[O-])c1 (centres unmarked) [D, Methyl 1,4-dihydro-2,6-dimethyl-3-[3-(N--benzyl-N--methylamino)methyl-1,2,4-oxadiazol-5-yl]-4-(3-nitrophenyl)-pyridine-5-carboxylate hydrochloride] | 0.186 | 0.01 | antihypertensive activity on 4 weeks administration (SHR): apparent antihypertensive activity; heart rate (SHR): slight decrease of heart rate; antihypertensive effects in comparison with nifedipine and nicardipine [3]: dose-dependently more potent and long acting antihypertensive effects in comparison with nifedipine and nicardipine; antihypertensive activity in SHR [4]: about the same antihypertensive activity as that of nicardipine 3 mg/kg; duration of antihypertensive effect in SHR [4]: continued much longer than that of nicardipine; diuretic activity [5]: about the same diuretic activity as that of nicardipine 10 mg/kg, po

More lines, main results first:

Kb [1] [nM] | Structure (SMILES) | minimal effective concentration [2] [µM] | also measured
0.0457 | COC(=O)C1=C(C)NC(C)=C(c2nc(CNC(C)c3ccccc3)no2)C1c1cccc([N+](=O)[O-])c1 (stereo not drawn) [E, Methyl 1,4-dihydro-2,6-dimethyl-3-[3-(α-methylbenzylamino)methyl-1,2,4-oxadiazol-5-yl]-4-(3-nitrophenyl)-pyridine-5-carboxylate citrate] |  | 
0.0955 | COC(=O)C1=C(C)NC(C)=C(c2nc(CN(C)CCc3ccc(OC)c(OC)c3)no2)C1c1cccc([N+](=O)[O-])c1 (centres unmarked) [F, Methyl 1,4-dihydro-2,6-dimethyl-3-[3-[N--(3,4-dimethoxyphenethyl)-N--methyl-amino]methyl-1,2,4-oxadiazol-5-yl]-4-(3-nitrophenyl)pyridine-5-carboxylate hydrochloride] | 0.01 | 
0.355 | CC1=C(C(=O)OC(C)C)C(c2cccc([N+](=O)[O-])c2)C(c2nc(CN(C)Cc3ccccc3)no2)=C(C)N1 (centres unmarked) [G, Isopropyl 1,4-dihydro-2,6-dimethyl-3-[3-(N--benzyl-N--methylamino)methyl-1,2,4-oxadiazol-5-yl]-4-(3-nitrophenyl)-pyridine-5-carboxylate hydrochloride] |  | 
